Data set [1] in a line: Assay C: metabolic stability in human liver microsomes (human MST). Format: in vitro ADME. The conditions noted are these: for half-life at 1 μM: pH 7.6, pooled human liver microsomes, 1 μM test compound, 37° C., read-out: Assay C: Human MST t1/2; for stability in human liver microsomes compared with closest prior art compounds in WO2016/034882 (in words): versus closest prior art examples of WO2016/034882. On the procedure: C. Assessment of Metabolic Stability in Human Liver Microsomes (Human MST) The metabolic stability of the compounds according to the invention may be investigated as follows: The metabolic degradation of the test compound is assayed at 37° C. with pooled human liver microsomes. The final incubation volume of 100 μL per time point contains TRIS buffer pH 7.6 at room temperature (0.1 M), MgCl2 (5 mM), microsomal protein (1 mg/mL) and the test compound at a final concentration of 1 μM. Following a short pre-incubation period at 37° C., the reactions are initiated by addition of beta-nicotinamide adenine dinucleotide phosphate, reduced form (NADPH, 1 mM), and terminated by transferring an aliquot into solvent after different time points. After centrifugation (10000 g, 5 min), an aliquot of the supernatant is assayed by LC-MS/MS for the amount of parent compound. The half-life (t1/2) is determined by the slope of the semi-logarithmic plot of the concentration-time profile.
In general terms: Liver microsomes are vesicles of endoplasmic reticulum, rich in cytochrome P450 enzymes.

In data set [2] the target is T1, human Orexin 1 receptor (Homo sapiens, UniProt O43613).
T1 construct: stably expressing the full-length human Orexin 1 receptor; expressed in transfected cells; host or cells: CHO-K1 (CHO-K1/hOx1)
T1 sequence (O43613 1-425): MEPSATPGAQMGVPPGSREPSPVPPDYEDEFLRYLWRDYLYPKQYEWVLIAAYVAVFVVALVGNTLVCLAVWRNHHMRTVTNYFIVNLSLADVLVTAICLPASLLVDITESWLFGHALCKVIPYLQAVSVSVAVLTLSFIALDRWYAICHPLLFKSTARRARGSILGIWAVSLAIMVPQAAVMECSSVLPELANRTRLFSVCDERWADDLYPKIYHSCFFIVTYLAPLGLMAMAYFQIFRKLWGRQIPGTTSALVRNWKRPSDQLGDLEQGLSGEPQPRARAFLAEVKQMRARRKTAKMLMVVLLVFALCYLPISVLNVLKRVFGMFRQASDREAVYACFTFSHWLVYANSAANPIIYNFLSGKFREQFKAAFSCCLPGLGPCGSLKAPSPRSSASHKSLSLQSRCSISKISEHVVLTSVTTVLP
The data set can be described thus: Assay A: in vitro testing of OX1R potency, OX1R IP1. Format: cell-based. The conditions noted are these: Table 3, read-out: Assay A OX1R Kb [nM] (Orexin A concentration). From the text:
Chem. Genomics 2009, 3, 22-32. […] AssayExplorer (Accelrys). […] Sci. 1993, 14(4), 110-112).

Data set [3] deals with T2, OX2R (Homo sapiens, UniProt O43614).
T2 sequence (O43614 1-444): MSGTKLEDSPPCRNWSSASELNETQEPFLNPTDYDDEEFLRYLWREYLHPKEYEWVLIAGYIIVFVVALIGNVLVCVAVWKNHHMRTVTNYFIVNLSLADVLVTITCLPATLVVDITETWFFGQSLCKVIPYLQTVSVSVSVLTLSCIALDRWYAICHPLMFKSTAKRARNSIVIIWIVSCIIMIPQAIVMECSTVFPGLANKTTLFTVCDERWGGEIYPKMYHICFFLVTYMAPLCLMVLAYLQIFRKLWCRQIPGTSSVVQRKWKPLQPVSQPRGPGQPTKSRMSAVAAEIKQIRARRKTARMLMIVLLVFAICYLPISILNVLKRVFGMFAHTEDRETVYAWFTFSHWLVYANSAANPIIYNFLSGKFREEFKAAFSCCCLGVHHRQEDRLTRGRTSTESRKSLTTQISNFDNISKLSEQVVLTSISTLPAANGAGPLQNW
The conditions noted are these: Table 3 of WO2016/034882, cited from earlier work.

The target in data set [4] is T2, OX2R. Put plainly: OX2R in vitro potency as reported in WO2016/034882. The data set is classed as cell-based. The note with it: Table 1 of WO2016/034882.

We go through 24 compounds from US10604511B2, “N-[(pyrazinyloxy)propanyl]benzamides as antagonists of orexin subtype 1 receptor activity” (Boehringer Ingelheim International GmbH, priority 2016, dated 2020).

One may read the IC50 as the concentration that inhibits the measured activity by half.

The structures appear in SMILES notation. Where two headings read alike, the source gives them in different places. Bounds are passed on as bounds.

For the compound `CCN(C(=O)c1ccccc1-c1noc(C)n1)[C@@H](C)COc1cnc(C(F)(F)F)cn1` [Example 32], the half-life at 1 μM in data set [1] was 66 min. Further, the Kb in data set [2] (0.5 nM Orexin A) stood at 2.1 nM.

Regarding `CCN(C(=O)c1ccc(Cl)cc1-n1nccn1)[C@@H](C)COc1cnc(C(F)(F)F)cn1` [Example 24], the half-life at 1 μM in data set [1] was 91 min. The values for the Kb in data set [2] (0.5 nM Orexin A) and in data set [2] (50 nM Orexin A) were 1.1 nM and 1 nM, respectively.

Turning to `CCN(C(=O)c1ccccc1-n1nccn1)[C@@H](C)COc1cnc(C(F)(F)F)cn1` [Example 1], the half-life at 1 μM in data set [1] is above 130 min. Moreover, the Kb in data set [2] (0.5 nM Orexin A) was 0.97 nM.

Regarding `CCN(C(=O)c1cc(F)c(F)cc1-n1nccn1)[C@@H](C)COc1cnc(C(F)(F)F)cn1` [Example 4], in data set [1], the half-life at 1 μM is above 130 min. Also, the Kb in data set [2] (0.5 nM Orexin A) amounted to 5.5 nM.

For `CC[C@@H](CNc1cnc(C(F)(F)F)cn1)N(CC)C(=O)c1nc(C)ccc1-n1nccn1` [Ex 70 in WO2016/ 034882], the half-life at 1 μM in data set [1] stood at 20 min. The Kb in data set [2] (50 nM Orexin A) was 0.14 nM. In data set [3], the “OX2R pIC50” value is recorded as 5.3. In addition, in data set [3] (read-out: OX2R IC50 (corresponds to pIC50) (converted)), the half-maximal inhibitory concentration (IC50) was above 5 µM.

In the case of `CCN(C(=O)c1ccc(C(F)(F)F)cc1-n1nccn1)[C@@H](C)COc1cnc(C(F)(F)F)cn1` [Example 25], the half-life at 1 μM in data set [1] turned out to be 23 min. Further, the Kb in data set [2] (0.5 nM Orexin A) came to 12 nM.

On to `CC[C@@H](CNc1cnc(C(F)(F)F)cn1)N(C)C(=O)c1cc(Cl)ccc1-n1nccn1` [Ex 40 in WO2016/ 034882, reference compound], for which the Kb in data set [2] (0.5 nM Orexin A) is 0.73 nM. Moreover, in data set [4], the “OX2R IC50/OX1R IC50” value is “Table 1: 156”.

As for `CCN(C(=O)c1ccccc1-n1cccn1)[C@@H](C)COc1cnc(C(F)(F)F)cn1` [Example 9], the half-life at 1 μM in data set [1] was 25 min. Also, the Kb in data set [2] (0.5 nM Orexin A) was determined as 5.4 nM.

On to `CCN(C(=O)c1cccc(C)c1-c1nnc(C)o1)[C@@H](C)COc1cnc(C(F)(F)F)cn1` [Example 15], for which, in data set [1], the half-life at 1 μM worked out at 91 min. Further, the values for the Kb in data set [2] (0.5 nM Orexin A) and in data set [2] (50 nM Orexin A) were 1.3 nM and 2.3 nM, respectively.

As for `CCN(C(=O)c1ccc(OC)cc1-n1nccn1)[C@@H](C)COc1cnc(C(F)(F)F)cn1` [Example 18], the half-life at 1 μM in data set [1] came out at 71 min. Also, the Kb in data set [2] (0.5 nM Orexin A) came out at 1.7 nM; in data set [2] (50 nM Orexin A), 1.8 nM.

Regarding `CCN(C(=O)c1cccc(F)c1-c1ncccn1)[C@@H](C)COc1cnc(C(F)(F)F)cn1` [Example 29], in data set [1], the half-life at 1 μM was above 130 min and the “stability in human liver microsomes compared with closest prior art compounds in WO2016/034882 (in words)” value was “markedly improved stability”. In data set [2] (0.5 nM Orexin A), the Kb was 0.64 nM. In addition, in data set [2] (50 nM Orexin A), the Kb amounted to 0.51 nM.

For `CCN(C(=O)c1cc(F)cc(F)c1-n1nccn1)[C@@H](C)COc1cnc(C(F)(F)F)cn1` [Example 6], the half-life at 1 μM in data set [1] is above 130 min. The Kb in data set [2] (0.5 nM Orexin A) is 3 nM.

Regarding `CCN(C(=O)c1ccc(F)cc1-c1ncccn1)[C@@H](C)COc1cnc(C(F)(F)F)cn1` [Example 27], in data set [1], the half-life at 1 μM was above 130 min and the “stability in human liver microsomes compared with closest prior art compounds in WO2016/034882 (in words)” value is reported as “markedly improved stability”. Moreover, in data set [2] (0.5 nM Orexin A), the Kb was 1 nM.

Regarding `CCN(C(=O)c1ccccc1-c1nc(C)no1)[C@@H](C)COc1cnc(C(F)(F)F)cn1` [Example 28], the half-life at 1 μM in data set [1] was found to be 39 min. Also, the Kb in data set [2] (0.5 nM Orexin A) amounted to 3.9 nM.

As for `CCN(C(=O)c1cccc(F)c1-c1nnc(C)o1)[C@@H](C)COc1cnc(C(F)(F)F)cn1` [Example 12], the half-life at 1 μM in data set [1] was above 130 min. Also, the Kb in data set [2] (0.5 nM Orexin A) was determined as 12 nM.

As for `CCN(C(=O)c1ccc(F)c(F)c1-n1nccn1)[C@@H](C)COc1cnc(C(F)(F)F)cn1` [Example 33], in data set [1], the half-life at 1 μM was above 130 min. Also, the Kb in data set [2] (0.5 nM Orexin A) worked out at 2.5 nM.

As to `CCN(C(=O)c1cc(F)ccc1-n1nccn1)[C@@H](C)COc1cnc(C(F)(F)F)cn1` [Example 3], the half-life at 1 μM in data set [1] is above 130 min. Moreover, the Kb in data set [2] (0.5 nM Orexin A) came out at 2.1 nM.

Turning to `CCN(C(=O)c1ccc(C)cc1-c1nnc(C)o1)[C@@H](C)COc1cnc(C(F)(F)F)cn1` [Example 14], in data set [1], the half-life at 1 μM worked out at 89 min. Moreover, the Kb in data set [2] (0.5 nM Orexin A) came out at 4.6 nM.

Regarding `CCN(C(=O)c1ccccc1-c1ncccn1)[C@@H](C)COc1cnc(C(F)(F)F)cn1` [Example 30], in data set [1], the half-life at 1 μM was above 130 min and the “stability in human liver microsomes compared with closest prior art compounds in WO2016/034882 (in words)” value is “markedly improved stability”. Also, the Kb in data set [2] (0.5 nM Orexin A) was determined as 0.55 nM. The Kb in data set [2] (50 nM Orexin A) came out at 0.63 nM.

For `CCN(C(=O)c1cc(OC)ccc1-n1nccn1)[C@@H](C)COc1cnc(C(F)(F)F)cn1` [Example 8], the half-life at 1 μM in data set [1] came to 73 min. In addition, in data set [2] (50 nM Orexin A), the Kb is 0.8 nM.

Consider `CCN(C(=O)c1ccc(C)cc1-n1nccn1)[C@@H](C)COc1cnc(C(F)(F)F)cn1` [Example 10], for which, in data set [1], the half-life at 1 μM turned out to be 80 min and the “stability in human liver microsomes compared with closest prior art compounds in WO2016/034882 (in words)” value was “markedly improved stability”. For the same compound, the Kb in data set [2] (50 nM Orexin A) is 0.44 nM.

Regarding `CCN(C(=O)c1ccc(F)cc1-n1nccn1)[C@@H](C)COc1cnc(C(F)(F)F)cn1` [Example 2], the half-life at 1 μM in data set [1] is above 130 min. Further, the Kb in data set [2] (0.5 nM Orexin A) was determined as 4.5 nM.

In the case of `CCN(C(=O)c1cccc(F)c1-n1nccn1)[C@@H](C)COc1cnc(C(F)(F)F)cn1` [Example 22], the half-life at 1 μM in data set [1] is above 130 min. The Kb in data set [2] (0.5 nM Orexin A) and in data set [2] (50 nM Orexin A) was 2.1 nM throughout.

On to `CCN(C(=O)c1cc(C(F)(F)F)ccc1-n1nccn1)[C@@H](C)COc1cnc(C(F)(F)F)cn1` [Example 7], for which the half-life at 1 μM in data set [1] is above 130 min. Besides, the Kb in data set [2] (0.5 nM Orexin A) came out at 13 nM.
